This passage reports IC50 results from patent US10065950B2, “Substituted thiazoles as HIV integrase inhibitors” (Japan Tobacco Inc., priority 2010, dated 2018).

As a reminder, the IC50 is the concentration needed to halve the response being measured.

For the assay, the target named is HIV-1 pNL4-3 integrase (Human immunodeficiency virus type 1 group M subtype B (isolate NY5) (HIV-1), UniProt P12497). In words: Determination of enzyme (HIV integrase) inhibitory activity. It counts as biochemical. Particulars: calculated from inhibition rate (fluorescence). As to the method: The following explains evaluation methods of the HIV integrase inhibitory activity of the compound of the present invention.
A full-length gene sequence (Accession No.: M19921) of HIV-1 pNL4-3 integrase was inserted into restriction enzyme Nde I and Xho I sites of plasmid pET21a(+) (manufactured by Novagen) to construct an integrase expression vector pET21a-IN-Wild type.
Escherichia coli recombinant BL21(DE3) transformed with plasmid pET21a-IN-Wild type obtained in (i) was shake cultured at 30° C. in a liquid medium containing ampicillin. When the culture reached the logarithmic growth phase, isopropyl-β-D-thiogalactopyranoside was added to promote expression of integrase gene. The culture was continued for 5 hr to promote accumulation of the integrase protein. The recombinant E. coli was collected in pellets by centrifugal separation and preserved at −80° C.
This Escherichia coli was suspended in Lysis buffer (50 mM Tris-HCl (pH 7.6), 10 mM MgCl2, 5 mM DTT), and disrupted by repeating treatments of pressurization and depressurization, and insoluble fraction was collected by centrifugation at 4° C., 18,000 rpm for 60 min. This was suspended in Lysis buffer containing a protease inhibitor, […] and 10 mM CHAPS were added, and the mixture was stirred at 4° C. for 30 min. Water-soluble fraction was collected by centrifugation at 4° C., 9,000 rpm for 30 min. The obtained fraction was diluted with a column buffer (50 mM Tris-HCl (pH 7.6), 1 mM DTT, 10% Glycerol, 10 mM CHAPS) to 5-fold, and the mixture was applied to heparin column (HiPrep 16/10 Heparin FF column: manufactured by GE Healthcare Bio-Sciences). Using a column buffer containing 1M NaCl, a protein was eluted with 0-1M NaCl concentration gradient, and an eluted fraction containing an integrase protein was collected. The obtained fraction was diluted 5-fold with a column buffer (50 mM Tris-HCl (pH 7.6), 1 mM DTT, 10% Glycerol, 10 mM CHAPS), and the mixture was applied to cation exchange column (Mono-S column: manufactured by GE Healthcare Bio-Sciences). Using a column buffer containing 1M NaCl, a protein was eluted with 0-1M NaCl concentration gradient, and an eluted fraction containing an integrase protein was collected. The obtained fractions of the integrase protein were collected, and preserved at −80° C.
The following DNA synthesized by FASMAC was dissolved in TE buffer (10 mM Tris-hydrochloric acid (pH 8.0), 1 mM EDTA) and mixed with donor DNA, target DNA, and each complementary strand (+ and − strands) to 1 μM. The mixture was heated at 95° C. for 5 min, 80° C. for 10 min, 70° C. for 10 min, 60° C. for 10 min, 50° C. for 10 min and 40° C. for 10 min and kept at 25° C. to give a double stranded DNA, which was used for the test.
Donor DNA (+strand having biotin attached to the 5′ terminal)
Target DNA (+, − strands both having digoxigenin attached to the 3′ terminal)
The donor DNA was diluted with TE buffer to 20 nM, of which 50 μL was added to each well of streptavidin-coated black plate (manufactured by PIAS Corporation) and allowed to adsorb at 37° C. for 20 min. The plate was washed with phosphate buffer (Dulbecco's PBS, Sanko Junyaku Co., Ltd.) containing 0.1% Tween 20 and phosphate buffer. Then, an enzyme reaction mixture (70 μL), a test substance (10 μL) diluted with the enzyme reaction mixture and 0.75 μM integrase protein (10 μL) were added to each well and the mixture was reacted at 37° C. for 60 min. composition of enzyme reaction mixture: 30 mM MOPS (3-morpholinopropanesulfonic acid), 5 mM magnesium chloride, 3 mM DTT (dithiothreitol), 0.1 mg/mL BSA (bovine serum albumin), 5% glycerol, 10% DMSO (dimethyl sulfoxide), 0.01% Tween 20.
Then, 25 nM target DNA (10 μL) was added, and the mixture was reacted at 37° C. for 20 min and washed with phosphate buffer containing 0.1% Tween 20 to stop the reaction. […]

Structures are written as SMILES.

Consider `CC(C)N1C[C@](C)(C(=O)N2CCC2)n2cc(-c3nnc(Cc4ccc(F)cc4)s3)c(=O)c(O)c2C1=O` [Example 2], for which the IC50 was 13 nM. `CCC(=O)N(C)CC1(C)CN(C(C)C)C(=O)c2c(O)c(=O)c(-c3ncc(Cc4ccc(F)cc4F)s3)cn21` (stereo not drawn) [Example 7]: the IC50 was 13 nM. The figure for `CC(C)N1CC2(CCOCC2)n2cc(-c3nnc(Cc4ccc(F)cc4F)s3)c(=O)c(O)c2C1=O` [Example 8] is 8.9 nM; for `COCC1CN(C(C)C)C(=O)c2c(O)c(=O)c(-c3nnc(Cc4ccc(F)cc4F)s3)cn21` (stereo not drawn) [Example 18] it is 8.2 nM. Turning to `CC(C)N1CC(CO)n2cc(-c3ncc(Cc4ccc(F)cc4F)s3)c(=O)c(O)c2C1=O` (stereo not drawn) [Example 19], the IC50 is 8.1 nM. Regarding `CC(C)N1CC(C)(CO)n2cc(-c3ncc(Cc4ccc(F)cc4F)s3)c(=O)c(O)c2C1=O` (stereo not drawn) [Example 20], the 50% inhibitory concentration (IC50) is 17 nM. For `CC(C)N1CC(CC(=O)N(C)C)n2cc(-c3ncc(Cc4ccc(F)cc4F)s3)c(=O)c(O)c2C1=O` (stereo not drawn) [Example 21] the value was 9.4 nM; for `CNC(=O)C1CN(C(C)C)C(=O)c2c(O)c(=O)c(-c3ncc(Cc4ccc(F)cc4F)s3)cn21` (stereo not drawn) [Example 22], 7 nM. As to `CC(C)N1CC(C(=O)O)n2cc(-c3ncc(Cc4ccc(F)cc4F)s3)c(=O)c(O)c2C1=O` (stereo not drawn) [Example 23], the IC50 was 12 nM. Turning to `CC(C)N1CC(C)(C(=O)O)n2cc(-c3ncc(Cc4ccc(F)cc4F)s3)c(=O)c(O)c2C1=O` (stereo not drawn) [Example 24], the IC50 was 23 nM. Take `CCNC(=O)C1CN(C(C)C)C(=O)c2c(O)c(=O)c(-c3ncc(Cc4ccc(F)cc4F)s3)cn21` (stereo not drawn) [Example 25]: the IC50 is 11 nM.

As for `CC(C)N1CC(C(=O)N(C)C)n2cc(-c3ncc(Cc4ccc(F)cc4F)s3)c(=O)c(O)c2C1=O` (stereo not drawn) [Example 26], the IC50 was 7.6 nM. For `CCNC(=O)C1(C)CN(C(C)C)C(=O)c2c(O)c(=O)c(-c3ncc(Cc4ccc(F)cc4F)s3)cn21` (stereo not drawn) [Example 27], the IC50 was 10 nM.

On to `CC(C)N1CC(C)(C(=O)N(C)C)n2cc(-c3ncc(Cc4ccc(F)cc4F)s3)c(=O)c(O)c2C1=O` (stereo not drawn) [Example 28], for which the IC50 is 15 nM. For `CNC(=O)C1(C)CN(C(C)C)C(=O)c2c(O)c(=O)c(-c3ncc(Cc4ccc(F)cc4F)s3)cn21` (stereo not drawn) [Example 29] the value was 10 nM; for `O=C1c2c(O)c(=O)c(-c3nnc(Cc4ccc(F)cc4F)s3)cn2C2(CCOCC2)CN1C1CC1` [Example 30], 9 nM; for `CC(C)NC(=O)C1CN(C(C)C)C(=O)c2c(O)c(=O)c(-c3ncc(Cc4ccc(F)cc4F)s3)cn21` (stereo not drawn) [Example 31], 8.3 nM.

As to `CC(C)CNC(=O)C1CN(C(C)C)C(=O)c2c(O)c(=O)c(-c3ncc(Cc4ccc(F)cc4F)s3)cn21` (stereo not drawn) [Example 32], the IC50 is 7.7 nM. The figure for `CC(C)N1CC(CC(=O)O)n2cc(-c3ncc(Cc4ccc(F)cc4F)s3)c(=O)c(O)c2C1=O` (stereo not drawn) [Example 33] is 6.2 nM. Turning to `CNC(=O)CC1CN(C(C)C)C(=O)c2c(O)c(=O)c(-c3ncc(Cc4ccc(F)cc4F)s3)cn21` (stereo not drawn) [Example 34], the IC50 was 8.2 nM. For `CC(C)N1CC(CC(N)=O)n2cc(-c3ncc(Cc4ccc(F)cc4F)s3)c(=O)c(O)c2C1=O` (stereo not drawn) [Example 35] the value was 6.7 nM.

On to `CC(C)NC(=O)CC1CN(C(C)C)C(=O)c2c(O)c(=O)c(-c3ncc(Cc4ccc(F)cc4F)s3)cn21` (stereo not drawn) [Example 36], for which the IC50 was 13 nM.

Consider `CC(C)N1C(=O)c2c(O)c(=O)c(-c3nnc(Cc4ccc(F)cc4F)s3)cn2CC1CO` (stereo not drawn) [Example 37], for which the IC50 was 6.3 nM.

With `CC(C)N1CC(C)(C(=O)N2CCCCC2)n2cc(-c3ncc(Cc4ccc(F)cc4F)s3)c(=O)c(O)c2C1=O` (stereo not drawn) [Example 38], the IC50 was 12 nM. For `CC(C)N1CC(C)(C(=O)N2CCCC2)n2cc(-c3ncc(Cc4ccc(F)cc4F)s3)c(=O)c(O)c2C1=O` (stereo not drawn) [Example 39] the value was 10 nM. Turning to `CC(C)CNC(=O)CC1CN(C(C)C)C(=O)c2c(O)c(=O)c(-c3ncc(Cc4ccc(F)cc4F)s3)cn21` (stereo not drawn) [Example 40], the IC50 is 13 nM. With `CC(C)N1CC(CC(=O)N2CCCCC2)n2cc(-c3ncc(Cc4ccc(F)cc4F)s3)c(=O)c(O)c2C1=O` (stereo not drawn) [Example 41], the IC50 was 7.2 nM. The figure for `COCC1Cn2cc(-c3nnc(Cc4ccc(F)cc4F)s3)c(=O)c(O)c2C(=O)N1C(C)C` (stereo not drawn) [Example 42] is 3.4 nM; for `COCC1Cn2cc(-c3nnc(Cc4ccc(F)cc4F)s3)c(=O)c(O)c2C(=O)N1CC(C)C` (stereo not drawn) [Example 43] it is 4.6 nM; for `COCCOC[C@H]1CN(C(C)C)C(=O)c2c(O)c(=O)c(-c3nnc(Cc4ccc(F)cc4F)s3)cn21` [Example 44] it is 8.1 nM.

In the case of `COCCOC[C@H]1CN(CC(C)C)C(=O)c2c(O)c(=O)c(-c3nnc(Cc4ccc(F)cc4F)s3)cn21` [Example 45], the IC50 was 11 nM. Consider `COCCOC[C@@H]1CN(C(C)C)C(=O)c2c(O)c(=O)c(-c3nnc(Cc4ccc(F)cc4F)s3)cn21` [Example 46], for which the IC50 is 11 nM.

For the molecule `COCCOC[C@@H]1CN(CC(C)C)C(=O)c2c(O)c(=O)c(-c3nnc(Cc4ccc(F)cc4F)s3)cn21` [Example 47], the IC50 is 12 nM. The figure for `COCCOC[C@@H]1Cn2cc(-c3nnc(Cc4ccc(F)cc4F)s3)c(=O)c(O)c2C(=O)N1CC(C)C` [Example 48] is 6.9 nM; for `CC(C)N1CC(CC#N)n2cc(-c3ncc(Cc4ccc(F)cc4F)s3)c(=O)c(O)c2C1=O` (stereo not drawn) [Example 49] it is 5.1 nM; for `CC(C)N1C(=O)c2c(O)c(=O)c(-c3nnc(Cc4ccc(F)cc4F)s3)cn2CC1C(=O)O` (stereo not drawn) [Example 50] it is 6.4 nM. As for `CNC(=O)C1Cn2cc(-c3nnc(Cc4ccc(F)cc4F)s3)c(=O)c(O)c2C(=O)N1C(C)C` (stereo not drawn) [Example 51], the IC50 is 5.7 nM. For `CC(C)N1CC(C)(C(=O)N2CCOCC2)n2cc(-c3ncc(Cc4ccc(F)cc4F)s3)c(=O)c(O)c2C1=O` (stereo not drawn) [Example 52] the value was 13 nM; for `CC(C)N1C(=O)c2c(O)c(=O)c(-c3nnc(Cc4ccc(F)cc4F)s3)cn2CC1C(=O)N(C)C` (stereo not drawn) [Example 53], 10 nM. The figure for `COCCOC[C@@H]1Cn2cc(-c3nnc(Cc4ccc(F)cc4F)s3)c(=O)c(O)c2C(=O)N1C(C)C` [Example 54] is 7.5 nM. On to `COCCOC[C@H]1Cn2cc(-c3nnc(Cc4ccc(F)cc4F)s3)c(=O)c(O)c2C(=O)N1CC(C)C` [Example 55], for which the 50% inhibitory concentration (IC50) is 21 nM. For `COCCOC[C@H]1CN(C(C)C)C(=O)c2c(O)c(=O)c(-c3ncc(Cc4ccc(F)cc4F)s3)cn21` [Example 56] the value was 10 nM; for `COCCOC[C@H]1CN(CC(C)C)C(=O)c2c(O)c(=O)c(-c3ncc(Cc4ccc(F)cc4F)s3)cn21` [Example 57], 11 nM. On to `COCCOC[C@H]1Cn2cc(-c3ncc(Cc4ccc(F)cc4F)s3)c(=O)c(O)c2C(=O)N1CC(C)C` [Example 58], for which the IC50 is 17 nM. For the molecule `COCCOC[C@H]1Cn2cc(-c3ncc(Cc4ccc(F)cc4F)s3)c(=O)c(O)c2C(=O)N1C(C)C` [Example 59], the IC50 was 12 nM. With `COCCOC[C@H]1Cn2cc(-c3nnc(Cc4ccc(F)cc4F)s3)c(=O)c(O)c2C(=O)N1C(C)C` [Example 60], the IC50 was 17 nM. For `COCC1Cn2cc(-c3ncc(Cc4ccc(F)cc4F)s3)c(=O)c(O)c2C(=O)N1C(C)C` (stereo not drawn) [Example 61] the value was 6.6 nM; for `COCC1Cn2cc(-c3ncc(Cc4ccc(F)cc4F)s3)c(=O)c(O)c2C(=O)N1CC(C)C` (stereo not drawn) [Example 62], 9.2 nM.
